Measured values published in publication PMC12446476 (Nature Communications, 2025).
Values joined by “and” are separate entries in the source; they are usually repeats but may differ in a detail not shown here. Equal entries are not always repeated.

System: N. gonorrhoeae
Assay: N. gonorrhoeae murine vaginal infection model, efficacy
Assay type: in vivo, mouse
Method: The N. gonorrhoeae female mouse vaginal model[45] was performed in accordance with the Guide for Care and Use of Laboratory Animals[75]. Animal rooms were maintained at a temperature range of 20–24 °C and humidity between 30% and 70%, with 12 h light/dark cycles. Ovariectomized BALB/c female mice (5–6 weeks, BioLASCO Taiwan Co., Ltd.) were treated with estradiol (0.23 mg/mouse) two days before infection and on the day of infection. Ovariectomized mice were used to avoid staging mice before treating them with estradiol. Beginning two days prior to infection and maintained until the end of the study, animals were treated twice daily with streptomycin (1.2 mg/mouse) and vancomycin (0.6 mg/mouse) each via intraperitoneal (IP) injection and received trimethoprim sulfate in the drinking water (0.4 mg/mL) to control vaginal microflora. Animals were anesthetised with pentobarbital (80 mg/kg), the vagina was rinsed with 50 mM HEPES (pH 7.4), and then inoculated with N. gonorrhoeae in pre-warmed PBS (0.02 mL/mouse containing ~1 × 10^5 CFU).
Control groups received either a single IP injection of ceftriaxone or 5% dextrose (vehicle) twice daily. Animals were sacrificed via CO2 asphyxiation at either 2 h (baseline), 26 and/or 50 h post-infection. Vaginal lavage was performed twice with 200 µL GC broth containing 0.05% saponin to recover bacteria. Bacterial burden in the lavage fluids was determined by performing 10-fold serial dilutions and plating on chocolate agar plates. Four strains were assessed using the model; ATCC 700825 is naturally streptomycin-resistant, whereas AR Bank0179-15, AR Bank0181-17 and WHO X-07 are derivatives of AR Bank0179, AR Bank0181 and WHO X, respectively, that were engineered for streptomycin resistance for use in the model.

[1] = Data 4, N. gonorrhoeae WHO X-07, ovariectomized BALB/c, 5 mg/kg IP, QD, 24h, individual animals, 5 mg/kg
[2] = Data 4, N. gonorrhoeae WHO X-07, ovariectomized BALB/c, 333.33 mg/kg IP, TID, 24h, individual animals
[3] = Data 4, N. gonorrhoeae WHO X-07, ovariectomized BALB/c, 333.33 mg/kg IP, TID, 48h, individual animals, 333.33 mg/kg
[4] = N. gonorrhoeae AR Bank0179-15, vaginal lavage, individual mice, Ceftriaxone 0.5 mg/kg IP, QD, 24h
[5] = N. gonorrhoeae AR Bank0179-15, vaginal lavage, individual mice, Ceftriaxone 5 mg/kg IP, QD, 24h
[6] = N. gonorrhoeae AR Bank0179-15, vaginal lavage, individual mice, Ceftriaxone 5 mg/kg IP, QD, 48h
[7] = N. gonorrhoeae AR Bank0181-17, vaginal lavage, individual mice, Ceftriaxone 0.5 mg/kg IP, QD, 24h
[8] = N. gonorrhoeae AR Bank0181-17, vaginal lavage, individual mice, Ceftriaxone 5 mg/kg IP, QD, 24h
[9] = N. gonorrhoeae AR Bank0181-17, vaginal lavage, individual mice, Ceftriaxone 5 mg/kg IP, QD, 48h
[10] = N. gonorrhoeae ATCC 700825, vaginal lavage, individual mice, Ceftriaxone 1 mg/kg IP, QD, 24h
[11] = N. gonorrhoeae ATCC 700825, vaginal lavage, individual mice, Ceftriaxone 5 mg/kg IP, QD, 24h
[12] = N. gonorrhoeae ATCC 700825, vaginal lavage, individual mice, Ceftriaxone 5 mg/kg IP, QD, 48h

`CO/N=C(\C(=O)N[C@@H]1C(=O)N2C(C(=O)O)=C(CSc3nc(=O)c(=O)[nH]n3C)CS[C@H]12)c1csc(N)n1` [Ceftriaxone, reference compound] was tested, and the “Mean Diff. 0h vs. treatment, log10 CFU” value (AR Bank0179-15, 0.5 µg/mL ceftriaxone, 24h) was 3.018, the “Mean Diff. 0h vs. treatment, log10 CFU” value (AR Bank0179-15, 5 µg/mL ceftriaxone, 24h) was 3.186 and the “Mean Diff. 0h vs. treatment, log10 CFU” value (AR Bank0179-15, 5 µg/mL ceftriaxone, 48h) was 3.09. For the same molecule, the “Mean Diff. 0h vs. treatment, log10 CFU” value (AR Bank0181-17, 0.5 µg/mL ceftriaxone, 24h) was 0.924, the “Mean Diff. 0h vs. treatment, log10 CFU” value (AR Bank0181-17, 5 µg/mL ceftriaxone, 24h) was 3.56 and the “Mean Diff. 0h vs. treatment, log10 CFU” value (AR Bank0181-17, 5 µg/mL ceftriaxone, 48h) was 3.56. The “efficacy against ceftriaxone-susceptible strains” value (ATCC 700825, AR Bank0179-15, AR Bank0181-17) was “effective”, the “Mean Diff. 0h vs. treatment, log10 CFU” value (ATCC 700825, 1 µg/mL ceftriaxone, 24h) was 2.882 and the “Mean Diff. 0h vs. treatment, log10 CFU” value (ATCC 700825, 5 µg/mL ceftriaxone, 24h) was 3.022. For the same molecule, the “Mean Diff. 0h vs. treatment, log10 CFU” value (ATCC 700825, 5 µg/mL ceftriaxone, 48h) was 3.082, the CFU/mL lavage fluid [1] was 1450000 CFU/mL lavage fluid and 400000 CFU/mL lavage fluid and 1290000 CFU/mL lavage fluid and 480000 CFU/mL lavage fluid and 620000 CFU/mL lavage fluid and the “Log10(CFU/mL lavage fluid)” value [1] was 6.16 Log10(CFU/mL lavage fluid) and 5.60 Log10(CFU/mL lavage fluid) and 6.11 Log10(CFU/mL lavage fluid) and 5.68 Log10(CFU/mL lavage fluid) and 5.79 Log10(CFU/mL lavage fluid). For the same molecule, the CFU/mL lavage fluid [2] was <5.00E+00 CFU/mL lavage fluid, the “Log10(CFU/mL lavage fluid)” value [2] was <0.70 Log10(CFU/mL lavage fluid) and the CFU/mL lavage fluid [3] was 35 CFU/mL lavage fluid and <5.00E+00 CFU/mL lavage fluid. For the same molecule, the “Log10(CFU/mL lavage fluid)” value [3] was 1.54 Log10(CFU/mL lavage fluid) and <0.70 Log10(CFU/mL lavage fluid), the CFU/mL lavage fluid [4] was 5 CFU/mL and <5 CFU/mL and 35 CFU/mL and the “Log10(CFU/mL lavage fluid)” value [4] was 0.7 Log10(CFU/mL lavage fluid) and <0.70 Log10(CFU/mL lavage fluid) and 1.54 Log10(CFU/mL lavage fluid). For the same molecule, the CFU/mL lavage fluid [5] was <5 CFU/mL, the “Log10(CFU/mL lavage fluid)” value [5] was <0.70 Log10(CFU/mL lavage fluid) and the CFU/mL lavage fluid [6] was 5 CFU/mL and <5 CFU/mL and 15 CFU/mL. For the same molecule, the “Log10(CFU/mL lavage fluid)” value [6] was 0.7 Log10(CFU/mL lavage fluid) and <0.70 Log10(CFU/mL lavage fluid) and 1.18 Log10(CFU/mL lavage fluid), the CFU/mL lavage fluid [7] was 255 CFU/mL and 195 CFU/mL and 3900 CFU/mL and 37000 CFU/mL and 6600 CFU/mL and the “Log10(CFU/mL lavage fluid)” value [7] was 2.41 Log10(CFU/mL lavage fluid) and 2.29 Log10(CFU/mL lavage fluid) and 3.59 Log10(CFU/mL lavage fluid) and 4.57 Log10(CFU/mL lavage fluid) and 3.82 Log10(CFU/mL lavage fluid). For the same molecule, the CFU/mL lavage fluid [8] was <5 CFU/mL, the “Log10(CFU/mL lavage fluid)” value [8] was <0.70 Log10(CFU/mL lavage fluid) and the CFU/mL lavage fluid [9] was <5 CFU/mL. The “Log10(CFU/mL lavage fluid)” value [9] was <0.70 Log10(CFU/mL lavage fluid), the CFU/mL lavage fluid [10] was 50 CFU/mL and 5 CFU/mL and <5 CFU/mL and the “Log10(CFU/mL lavage fluid)” value [10] was 1.7 Log10(CFU/mL lavage fluid) and 0.7 Log10(CFU/mL lavage fluid) and <0.70 Log10(CFU/mL lavage fluid). The CFU/mL lavage fluid [11] was <5 CFU/mL and 10 CFU/mL, the “Log10(CFU/mL lavage fluid)” value [11] was <0.70 Log10(CFU/mL lavage fluid) and 1 Log10(CFU/mL lavage fluid) and the CFU/mL lavage fluid [12] was <5 CFU/mL. For the same molecule, the “Log10(CFU/mL lavage fluid)” value [12] was <0.70 Log10(CFU/mL lavage fluid), the “Mean Diff. 0h vs. treatment, log10 CFU” value (WHO X-07, 5 µg/mL ceftriaxone, 24h) was -1.846 and the “Mean Diff. 0h vs. treatment, log10 CFU” value (WHO X-07, 1000 µg/mL ceftriaxone, 24h) was 3.322. The “Mean Diff. 0h vs. treatment, log10 CFU” value (WHO X-07, 1000 µg/mL ceftriaxone, 48h) was 3.154, the “efficacy against ceftriaxone-resistant strain WHO X-07” value (at doses equivalent to those effective against susceptible strains) was “ineffective” and the “increase in log10CFU/mL at 24 h” value (dose with simulated fT > MIC of 2 h) was 1.9 log10CFU/mL. The “reduction in log10CFU/mL at 24 h” value (doses with simulated fT > MIC of 12 to 18 h) was 2.0 log10CFU/mL, the “reduction in log10CFU/mL at 24 h” value (doses with simulated fT > MIC of >24 h) was 3.3 log10CFU/mL and the “reduction in log10CFU/mL at 24 h” value (doses with simulated fT > MIC of ≥22 to 24 h) was 2.9 log10CFU/mL.
